Values of other authors as cited in patent US6262108A, “Medicinal use of cromoglycic acid compounds” (Kyoto Pharmaceutical Industries, Ltd., priority 1997, dated 2001).
Structures can show the parent of a compound that is named as a salt.

Experiments:
[1] = test system: contact dermatitis and atopic dermatitis; conditions: background statement on conventional antiallergic agents; cited from earlier work
[2] = test system: type IV allergic reaction; conditions: background statement, postulated, with literature references; cited from earlier work

SMILES | therapeutic effects on contact dermatitis and atopic dermatitis [1] | type IV allergic reaction-inhibitory action [2]
CCOCCn1c(N2CCCN(C)CC2)nc2ccccc21 [emedastine difumarate] | either ineffective or fail to show satisfactory therapeutic effects | failure to show a type IV allergic reaction-inhibitory action
NC1=NCC2c3ccccc3Cc3ccccc3N12 (stereo not drawn) [epinastine hydrochloride] | either ineffective or fail to show satisfactory therapeutic effects | failure to show a type IV allergic reaction-inhibitory action
O=c1[nH]c2ccccc2n1CCCN1CCN(C(c2ccccc2)c2ccccc2)CC1 [oxatomide] | either ineffective or fail to show satisfactory therapeutic effects | failure to show a type IV allergic reaction-inhibitory action
Cc1cccn2c(=O)c(-c3nnn[nH]3)cnc12 [pemirolast potassium] | either ineffective or fail to show satisfactory therapeutic effects | failure to show a type IV allergic reaction-inhibitory action
Cc1ccc2c([nH]c(=O)c3c(=O)cc(C(=O)OCCC(C)C)oc32)c1C [repirinast] | either ineffective or fail to show satisfactory therapeutic effects | failure to show a type IV allergic reaction-inhibitory action
COc1ccc(/C=C/C(=O)Nc2ccccc2C(=O)O)cc1OC [tranilast] | either ineffective or fail to show satisfactory therapeutic effects | failure to show a type IV allergic reaction-inhibitory action
